Laboratory results: patent US6653081B2, “Methods for monitoring antiretroviral therapy and guiding therapeutic decision in the treatment of HIV/AIDS” (ViroLogic, Inc., priority 2000, dated 2003)
“Also recorded” adds a separate entry of the source.

Experiments:
RTV-1033-3/106V = experiment: Phenotypic susceptibility assay, RTV-1033-3/106V; format: cell-based, HIV; details: RTV-1033-3 with V106A reverted
From the text: (§1) The resistance test vectors containing a functional luciferase gene cassette were constructed and host cells were transfected with the resistance test vector DNA. The resistant test vectors contained patient-derived reverse transcriptase and protease sequences that were either susceptible or resistant to the antiretroviral agents, such as nucleoside reverse transcriptase inhibitors, (NRTIs) non-nucleoside reverse transcriptase inhibitors […] protease inhibitors. The resistance test vector viral particles produced by transfecting the resistance test vector DNA into host cells, either in the presence or absence of PRIs, were used to infect target host cells grown either in the absence of NRTIs or NNRTIs, or in the presence of increasing concentrations of the drug. The amount of luciferase activity produced in infected target host cells in the presence of varying concentrations of drug was compared to the amount of luciferase produced in infected target host cells in the absence of drug. “Drug resistance” was measured as the amount of drug required to inhibit by 50% the luciferase activity detected in the absence of drug (inhibitory concentration 50%, IC50). The IC50 values were determined by plotting percent drug inhibition vs. log10 drug concentration. Stimulation of viral replication was measured as the percent increase in luciferase activity detected when infection occurs in the presence of drug as compared to in the absence of drug.
(§2) Host cells were seeded in 10-cm-diameter dishes and were transfected several days after plating with resistance test vector plasmid DNA and the envelope expression vector. Transfections were performed using a calcium-phosphate precipitation procedure. The cell culture media containing the DNA precipitate was replaced with fresh medium, from one to 24 hours, after transfection. Cell culture media containing resistance test vector viral particles was harvested one to four days after transfection and was passed through a […] filter before being used to infect target host cells, or being stored at −80° C. HIV capsid protein (p24) levels in the harvested cell culture media were determined by an EIA method as described by the manufacturer (SAIC; Frederick, Md.). Before infection, target cells (293 and 293/T) were plated in cell culture media. Control infections were performed using cell culture media from mock transfections (no DNA) or transfections containing the resistance test vector plasmid DNA without the envelope expression plasmid. One to three or more days after infection, the media was removed and cell lysis buffer (Promega) was added to each well. Cell lysates were assayed for luciferase activity (FIG. 3). The inhibitory effect of the drug was determined using the following equation:
(§3) % luciferase inhibition=1−(RLUluc[drug]÷RLUluc)×100
(§4) where RLUluc [drug] is the Relative Light Unit of luciferase activity in infected cells in the presence of drug, and RLUluc is the Relative Light Unit of luciferase activity in infected cells in the absence of drug. IC50values were obtained from the sigmoidal curves that were generated from the data by plotting the percent inhibition of luciferase activity vs. the log10 drug concentration. The percent luciferase stimulation is the negative of the % inhibition calculated using the formula above.
A resistance test vector containing all of the mutations present in RTV-1033-3 except for V106A (RTV-1033-3/106V) was constructed and tested using the phenotypic assay described earlier. The results were compared to those determined using the parent RTV-1033-3. We determined the pattern of phenotypic susceptibility to the NNRTIs, delavirdine, nevirapine and efavirenz, in the reverted vector, RTV-1033-3/106V.

RTV-012090 = experiment: Phenotypic susceptibility assay, RTV-012090; format: cell-based, HIV; details: patient CCTG-1025, week 48; for decrease in susceptibility: K101E, K103N, G190S, M230L
From the text: as §1, §2, §3, §4
Resistance test vectors were constructed as described in Example 1 from virus samples obtained from an individual patient at two separate time points over a 48-week period. […]

RTV-K103N/I135T/V245E = experiment: Phenotypic susceptibility assay, RTV-K103N/I135T/V245E; format: cell-based, HIV-1; details: site-directed K103N + I135T + V245E
From the text: as §1, §2, §3, §4
A resistance test vector containing three mutations, K103N, I135T and V245E (RTV-K103N/I135T/V245E) was constructed and tested in the phenotypic assay described earlier. The results were compared to those determined using a genetically defined resistance test vector that was wild type at positions 103, 135 and 245. We determined the pattern of phenotypic susceptibility to the NNRTIs, delavirdine, nevirapine and efavirenz, in RTV-K103N.

[1] = test system: RTV-1033-3/283L/284R/286T/293V/297E; experiment: Phenotypic susceptibility assay, RTV-1033-3/283L/284R/286T/293V/297E; format: cell-based, HIV; details: RTV-1033-3 with L283I, R284K, T286A, V293I and E297K reverted
From the text: as §1, §2, §3, §4
A resistance test vector containing all of the mutations present in RTV-1033-3 except for L283I, R284K, T286A, V293I and E297K (RTV-1033-3/283L/284R/286T/293V/297E) was constructed and tested using the phenotypic assay described earlier. The results were compared to those determined using the parent RTV-1033-3. We determined the pattern of phenotypic susceptibility to the NNRTIs, delavirdine, nevirapine and efavirenz, in the reverted vector, RTV-1033-3/283L/284R/286T/293V/297E.

RTV-006782 = experiment: Phenotypic susceptibility assay, RTV-006782; format: cell-based, HIV; details: patient 006782; for decrease in susceptibility: V245T, I135T, E138A
From the text: as §1, §2, §3, §4
A resistance test vector was constructed as described in Example 1 from a virus sample obtained from patient 006782. The prior and current treatment regimens are unknown. Isolation of viral RNA and RT/PCR was used to generate a patient derived segment (PDS) that comprised viral sequences coding for all of PR and aa 1-313 of RT. The PDS were inserted into an indicator gene viral vector to generate a resistance test vector designated RTV-006782. RTV-006782 was then tested in a phenotypic assay to determine accurately and quantitatively the level of susceptibility to a panel of anti-retroviral drugs. […]

RTV-V245T = experiment: Phenotypic susceptibility assay, RTV-V245T; format: cell-based, HIV-1; details: site-directed V245T alone
From the text: as §1, §2, §3, §4
A resistance test vector containing a single mutation, V245T, (RTV-V245T) was constructed and tested in the phenotypic assay described earlier. The results were compared to those determined using a genetically defined resistance test vector that was wild type at position 245. We determined the pattern of phenotypic susceptibility to the NNRTIs, delavirdine, nevirapine and efavirenz, in […].

RTV-010829/245V-297E = experiment: Phenotypic susceptibility assay, RTV-010829/245V-297E; format: cell-based, HIV; details: for drug-dependent stimulation of viral replication: RTV-010829 with V245E to E297K reverted; for reductions in susceptibility compared to wild type control RTV: RTV-010829 with V245E, I270M, V276I, R277K, V292I, V293I, E297K reverted
From the text: as §1, §2, §3, §4
A resistance test vector containing all of the mutations present in RTV-010829 except for the V245E mutation (RTV-010829/245V) was constructed and tested using the phenotypic assay described earlier. The results were compared to those determined using the parent RTV-010829. We determined the pattern of phenotypic susceptibility to the NNRTIs, delavirdine, nevirapine and efavirenz, in the reverted vector RTV-010829/245V. […] A resistance test vector containing all of the mutations present in RTV-010829 except for the I270M (RTV-010829/270I) was constructed and tested using the phenotypic assay described earlier. […]

| SMILES | drug-dependent stimulation of viral replication (RTV-1033-3/106V) | increase in susceptibility (hyper-susceptibility) compared to wild type control RTV (RTV-1033-3/106V) [fold] | drug-dependent stimulation of viral replication (RTV-012090) [%] | decrease in susceptibility (RTV-012090) [fold] | drug-dependent stimulation of viral replication (RTV-K103N/I135T/V245E) | reductions in susceptibility compared to wild type control RTV (RTV-K103N/I135T/V245E) [fold] | drug-dependent stimulation of viral replication [1] | reductions in susceptibility compared to wild type control RTV [1] [fold] | drug-dependent stimulation of viral replication (RTV-006782) [%] | decrease in susceptibility (RTV-006782) [fold] | drug-dependent stimulation of viral replication (RTV-V245T) | reductions in susceptibility compared to wild type control RTV (RTV-V245T) | drug-dependent stimulation of viral replication (RTV-010829/245V-297E) | reductions in susceptibility compared to wild type control RTV (RTV-010829/245V-297E) [fold] | reduction in susceptibility compared to wild type control RTV (RTV-1033-3/106V) |
| --- | --- | --- | --- | --- | --- | --- | --- | --- | --- | --- | --- | --- | --- | --- | --- |
| CC(C)Nc1cccnc1N1CCN(C(=O)c2cc3cc(NS(C)(=O)=O)ccc3[nH]2)CC1 [delavirdine] | no drug-dependent stimulation | 20 | ~30 | 144 | ~20% | 169 | no drug-dependent stimulation | 16 | ~70 | 18.5 | no drug-dependent stimulation | no reductions; also recorded: no significant reduction | no drug-dependent stimulation | 198 |  |
| O=C1Nc2ccc(Cl)cc2[C@@](C#CC2CC2)(C(F)(F)F)O1 [efavirenz] | ~20% |  | ~40 | > 450 | no drug-dependent stimulation and not | 93 | no drug-dependent stimulation | 5 | ~25 | 5 | no drug-dependent stimulation | no reductions; also recorded: no significant reduction | no drug-dependent stimulation | 76 | no reduction |
| Cc1ccnc2c1NC(=O)c1cccnc1N2C1CC1 [nevirapine] | ~40% |  | ~80 | > 600 | ~15% | 244 | no drug-dependent stimulation | 144 | ~60 | 8 | no drug-dependent stimulation | no reductions; also recorded: no significant reduction | no drug-dependent stimulation | 233 | 9 fold |
